We go through 87 molecules from a melting point compilation (Tetko et al.; mined from patent text by program, amines drawn as free bases though some values may be those of a salt).

Structures are written as SMILES.

Take `Cc1cc(C2CCN(S(=O)(=O)C3(C(=O)NO)CCOCC3)CC2)ccc1-c1cccc(OCCO)n1`: the melting point – broadly, the temperature of the solid-liquid transition – was in the range of 193 to 194 °C.

For `CC(C)c1ccccc1-n1c(=O)[nH]c2c(C(N)=O)nc(-c3ccc(-n4ccnc4)cc3)nc21`, the melting point worked out at 232 °C.

In turn, `O=[N+]([O-])c1cccc(P(=O)(O)O)c1` registered a melting point of 148 to 155 °C.

`Cc1cccc2c(=O)[nH]c(N3CCN(C)CC3)cc12` came in with a melting point of 186 to 188 °C.

In turn, `CC(=O)NS(=O)(=O)c1cc(C(=O)CCl)ccc1Cl` returned a melting point of 177 °C.

The molecule `CC(=O)Oc1c2c(c3ccccc3c1OC(C)=O)N(C(C)=O)c1ccccc1S2` returned a melting point of 213 to 214 °C.

For `Fc1ccc(-n2ccc3cc(OCCCCCCCBr)ccc32)cc1`, the melting point was in the range of 63 to 65 °C.

As to `CC(C)(C)OC(=O)NC1CCCC1CO` (configuration not stated), the melting point fell in the range of 107 to 108 °C.

`CN(C=O)c1c2oc3ccccc3c2nn1C`: the melting point lay in the range of 135 to 138 °C.

For the molecule `CCC(CC)n1ncn(-c2ccc(N3CCN(c4ccc5c(=O)n([C@H](C)[C@](O)(Cn6cncn6)c6ccc(F)cc6F)cnc5c4)CC3)cc2)c1=O`, the melting point fell in the range of 208 to 210 °C.

Regarding `Cc1noc(NS(=O)(=O)c2ccccc2-c2ccc(-c3ncco3)cc2CN(C)C(=O)CC(F)(F)F)c1C`, the melting point is 85 to 100 °C.

Consider `O=Cc1ccc(NC(=O)c2cc(F)cc(N3CCOCC3)c2)c2ccccc12`, for which the melting point was in the range of 204 to 205 °C.

Regarding `COCCOC(=O)c1ccc(C(C(N)=O)C(C)c2ccccc2N2CCCCC2)cc1` (configuration not stated), the melting point was in the range of 155 to 157 °C.

Molecule `CCOC(=O)c1ccc2c(c1)c(C)c(CBr)n2C(C)=O` displayed a melting point of 125 to 130 °C.

For the molecule `Cn1c(C(F)(F)F)cc(=O)n(-c2ccc3snc(C4OCC(CS(C)=O)O4)c3c2)c1=O` (configuration not stated), the melting point was 72 to 75 °C.

Take `CCOc1nc2cc(OC)cc(C)c2c(=O)o1`: the melting point fell in the range of 138 to 140 °C.

As for `CCCCCCC1(CCCCCC)c2cc(Cl)ccc2-c2ccc(Cl)cc21`, the melting point was 66 to 67 °C.

As for `COc1c(N2C[C@@H](C)N[C@@H](C)C2)c(F)cc2c(=O)c(C(=O)O)cn([C@@H]3C[C@@H]3F)c12`, the melting point was 129 to 131 °C.

In the case of `O=C(O)c1c2nc3cc(Cl)c(Br)cc3c-2[nH]c2ccccc12`, the melting point is > 243 °C.

With `Cn1nnnc1CC(c1ccccc1)c1ccccc1`, the melting point was 147 to 148 °C.

For `CSC(C)=NOC(=O)N(C)SN(C)C(=O)ON=C(C)C(C)=NOC(=O)N(C)SN(C)C(=O)ON=C(SC)C(=O)N(C)C`, the melting point lay in the range of 87 to 110 °C.

As to `CN(CCO)c1ccnc(CSc2nc3ccccc3[nH]2)c1Cl`, the melting point lay within 132 to 135 °C.

Turning to `O=C(NCCCBr)c1cnccc1C(F)(F)F`, the melting point was in the range of 61 to 63 °C.

`CCC(CC)C1CC(=O)C(C(=O)NS(=O)(=O)c2ccc(C)cc2)C(=O)C1` (configuration not stated): the melting point was determined as 112 °C.

`Cc1cccc(-c2n[nH]cc2-c2ccnc(-c3ccc(-n4ccnc4C)cc3)c2)n1` had a melting point of 128 °C.

Molecule `Cc1cccc(C(=NO)c2ccc(OCCOc3ccc(C(=NO)c4cccc(C)c4)cc3)cc2)c1` showed a melting point of 151 to 153 °C.

`COc1ccc(-c2cccc(S(=O)(=O)N3CCC(Nc4nc(Nc5cccc(C(F)(F)F)c5)nc(OCC(F)(F)F)n4)CC3)c2)cc1`: the melting point lay within 180 to 182 °C.

Turning to `CN1CCN(c2ncnc3oc(C4=CC=CN(N5CCOCC5)C4)c(-c4ccccc4)c23)CC1`, the melting point lay in the range of 255 to 257 °C.

As for `NCCNC(=O)Nc1ccccc1C(=O)NCC1CCN(C(c2ccccc2)c2ccccc2)CC1`, the melting point lay in the range of 101 to 103 °C.

`CC(=O)c1ccc(Cl)c(S(N)(=O)=O)c1`: the melting point lay within 175 to 176 °C.

Consider `COc1ccc(-c2cc(=O)[nH]cn2)cc1OC`, for which the melting point lay within 248 to 249 °C.

As for `CC(C)c1ccc2c(c1)c(-c1ccccc1Cl)c(C(=O)O)c(=O)n2C`, the melting point was 184 to 185 °C.

The molecule `CCCCc1noc(-c2ccc(C(=O)NCCC(C)(C)C)cc2)n1` displayed a melting point of 95 to 97 °C.

For `Cc1cccc2c1C(=O)N(C)Cc1c(-c3noc(C4CC4)n3)ncn1-2`, the melting point turned out to be 200 °C.

As for `CCCCN(Cc1c(O)ccc2ccccc12)Cc1c(O)ccc2ccccc12`, the melting point was 130 to 131 °C.

Molecule `CNC(=O)C(Cc1ccc(OC)cc1)NC(=O)CC(S)C(CC(C)C)C(N)=O` (configuration not stated) registered a melting point of 221 to 225 °C.

With `COc1cccc(C(=O)N2CCCC(=O)c3ccc(Cl)cc3CCC2=O)c1`, the melting point lay within 105 to 106 °C.

`CN(C)CCc1nnc2n1-c1ccc(Cl)cc1C(c1ccccc1)NC2` (configuration not stated) displayed a melting point of 131 to 137 °C.

Turning to `COC(=O)c1c(S(C)(=O)=O)ccc(C(=O)O)c1Cl`, the melting point was 160 to 162 °C.

In turn, `ClCc1cccc2c(C3CCCCC3)nccc12` had a melting point of 88.4 to 89.4 °C.

In turn, `COC(=O)c1ccc(-c2ccc(-c3ccccc3)c(-c3ccc4c(c3)C(C)(C)CCC4(C)C)c2)cc1O` displayed a melting point of 134 to 136 °C.

In turn, `Cc1noc(C)c1S(=O)(=O)N(C)c1ccc(Cl)cc1[N+](=O)[O-]` had a melting point of 99 to 101 °C.

`CCOCCNC(=O)n1cc(F)c(=O)[nH]c1=O` had a melting point of 134 to 135 °C.

Molecule `NCCc1c[nH]c2ccc(Cc3nnn(Cc4ccccc4)n3)cc12` came in with a melting point of 181 to 183 °C.

Take `C=C1CCCc2ccc(OCc3ccc4ccccc4n3)cc21`: the melting point fell in the range of 56 to 58 °C.

`CCc1noc(-c2ncn(-c3cccc(Oc4ccc(Cl)cc4)c3)c2COC)n1` gave a melting point of 68 to 70 °C.

Turning to `COc1ccc(NN=C(Sc2ccc(OC)cc2)C(C)=O)cc1`, the melting point is 126 to 128 °C.

Turning to `O=C(Cc1ccc(O)c2[nH]ncc12)NCc1ccccc1`, the melting point lay in the range of 188 to 190 °C.

Consider `CC(=O)N(C(C)C(=O)NC(C)C(=O)OC(C)(C)C)C(CO)c1ccccc1` (configuration not stated), for which the melting point was in the range of 38 to 40 °C.

`Cc1cc(C)cc(-c2nc3ccc(O)cc3n2Cc2ccccc2CBr)c1` had a melting point of 213 °C.

For `COC(=O)c1c(OC)ccc([N+](=O)[O-])c1OC`, the melting point was in the range of 77 to 78 °C.

For `CC1(C)CCC(C)(C)c2cc3c(=O)ccoc3cc21`, the melting point came to 202 °C.

The molecule `CC(CO)(CO)NS(=O)(=O)c1cc([N+](=O)[O-])c(Cl)s1` came in with a melting point of 133 °C.

Molecule `CCOC(=O)Nn1c(C)ccc1C(=O)c1ccccc1Cl` gave a melting point of 82 to 84 °C.

`O=C(Nc1cccc(C(F)(F)F)c1)c1cccc2cc(Oc3cc(COCc4ccccc4)ncn3)ccc12` yielded a melting point of 123 to 124 °C.

Regarding `CP1(=O)c2ccccc2CN1c1cccc(C(F)(F)F)c1` (configuration not stated), the melting point was in the range of 161 to 163 °C.

In turn, `CCCCC1=NC2(CCCC2)C(=O)N1Cc1ccc(-c2ccccc2S(=O)(=O)Nc2onc(C)c2C)c(CC(C)C)c1` came in with a melting point of 58 to 61 °C.

The molecule `CCCC(=O)OC1(C(C)=O)C(C)CC2C3CCC4=CC(=O)C=CC4(C)C3(Cl)C(=O)CC21C` (configuration not stated) yielded a melting point of 154 to 155 °C.

In turn, `OCC1Cc2cccc(F)c2OC1CO` (configuration not stated) came in with a melting point of 111 °C.

In turn, `Cc1ccc2c(c1)Oc1ccc([N+](=O)[O-])cc1C(=O)N2` came in with a melting point of 264 to 266 °C.

For `Cc1cc2c(s1)CCCN(CCN1CCN(c3ncccn3)CC1)C2=O`, the melting point lay within 137 to 139 °C.

Take `Cn1cc(Br)cc(Nc2ccccn2)c1=O`: the melting point was 153 to 154 °C.

The molecule `O=C(Nc1ccc(NCCCO)nc1)c1cc2cc(C(F)(F)F)cnc2n1Cc1cccc(F)c1` registered a melting point of 207 to 210 °C.

Molecule `COC(=O)c1ccccc1NC(=O)c1c(-c2ccccc2)c(-c2ccc(F)cc2)c(C=O)n1C(C)C` registered a melting point of 222 to 223 °C.

`CCn1c2cc(C)ccc2c2ccc3ccccc3c21`: the melting point lay in the range of 104 to 105 °C.

Take `Nc1nc(-c2ccccc2)c2cc(Cl)cc(Cl)c2n1`: the melting point was determined as 213 °C.

`CC(C)(O)C(=O)Nc1ccc2oc3ccccc3c2c1` returned a melting point of 134 to 137 °C.

`Cc1nnsc1C(=O)c1[nH]c2cc(Cl)ccc2c1CC(=O)O`: the melting point was 215 to 216 °C.

The molecule `COc1cc2cc3c(Nc4ccc(Sc5nccn5C)c(Cl)c4)c(C#N)cnc3cc2cc1OCCN1CCN(C)CC1` showed a melting point of 184 to 186 °C.

`O=C1CC2OC(CBr)CN12` (configuration not stated) displayed a melting point of 49 to 50 °C.

For `O=c1ccn([C@H]2[C@H](O)[C@H](O)CC[C@H]2O)c(=O)[nH]1` (racemic), the melting point was 246 °C.

Take `NC(=O)C(c1ccccc1)N1C(=O)c2ccccc2C1=O` (configuration not stated): the melting point was 218 °C.

In the case of `CCCn1cnc2c1c(=O)n(CCCC(C)(O)C#CCN1CCN(C)CC1)c(=O)n2C` (configuration not stated), the melting point was determined as 168 °C.

Regarding `O=[N+]([O-])c1ccc(C=Cc2ccc(N3CCOCCOCCOCCOCCOCC3)cc2)c([N+](=O)[O-])c1`, the melting point lay within 90 to 91 °C.

In turn, `CN1CCN(c2cccc3c2C[C@H](NC(=O)c2ccc(-c4ccccc4)cc2)CC3)CC1` registered a melting point of 232 to 233 °C.

As for `CCCCOC(=O)Cc1nc(-c2ccc(F)cc2)oc1-c1ccsc1`, the melting point was 81 to 82 °C.

Molecule `CN1C(O)=C(c2ccccc2)N=NC1(C)N` (configuration not stated) came in with a melting point of 91 °C.

As to `COc1cccc2c1OCc1nc(C(=O)O)cn1-2`, the melting point was in the range of 275 to 277 °C.

With `CCN(c1ccc([N+](=O)[O-])cc1[N+](=O)[O-])S(=O)(=O)c1ccc(C)cc1`, the melting point lay in the range of 135 to 136 °C.

`COCCN(CCOC)c1ccc(NC(=O)Nc2ccc(Oc3ccncc3)cc2)cc1C(F)(F)F` displayed a melting point of 64.5 to 65 °C.

The molecule `COCC(=O)OC1(C(=O)CO)CCC2C3CCC4=CC(=O)CCC4(C)C3C(O)CC21C` (configuration not stated) registered a melting point of 185 °C.

`Cc1cccc(-c2n[nH]cc2-c2ccc(F)c(-c3ccc(N4CCN(C)CC4)cn3)c2)n1` returned a melting point of 97 °C.

For `Clc1nc(Cl)c2ccsc2n1`, the melting point amounted to 116 °C.

As for `C#Cc1ccc(-c2c(C)nnc(OC)c2-c2c(F)cc(OC)cc2F)cc1`, the melting point was in the range of 192 to 193 °C.

`COc1ccc(NC2C=CC3=Nc4ccccc4SC3=C2)cc1` (configuration not stated) returned a melting point of 135 to 136 °C.

Regarding `O[C@@H](CNCCOc1ccc2oc(-c3ccon3)cc2c1)c1cccc(Cl)c1`, the melting point fell in the range of 112 to 120 °C.

In the case of `Cc1oc(C=Cc2ccccc2)nc1CCl`, the melting point lay within 108 to 109 °C.
